Data on 44 molecules can be found in US10457672B2, “γ-diketones as Wnt/β-catenin signaling pathway activators” (Samumed, LLC, priority 2013, dated 2019).

Broadly, the EC50 is the concentration that produces a half-maximal response. The low end stands for a more potent agent, the high end for a less potent agent.

Structures are written as SMILES.

For this assay, the system named is Wnt/β-catenin signaling pathway (Wnt-responsive SP5 promoter luciferase reporter in SW480 cells). In words: Wnt reporter (SP5 promoter-firefly luciferase) activation assay in SW480 cells. The format is cell-based. The following applies: Homo sapiens; SW480 colon cancer cells with SP5 promoter luciferase reporter; 24 h after compound addition; normalized to DMSO; concentration at half maximal activation. The method, then:
Compounds that enhance the Wnt activity, or Activators, were assayed as follows. Reporter cell lines were generated by stably transducing cells of colon cancer cell lines (with a lentiviral construct that included a Wnt-responsive promoter driving expression of the firefly luciferase gene).
Lentiviral constructs were made in which the SP5 promoter, a promoter having eight TCF/LEF binding sites derived from the SP5 promoter, was linked upstream of the firefly luciferase gene. The lentiviral constructs also included a hygromycin resistance gene as a selectable marker. The SP5 promoter construct was used to transduce SW480 cells, a colon cancer cell line having a mutated APC gene that generates a truncated APC protein, leading to de-regulated accumulation of β-catenin.
Cultured SW480 cells bearing a reporter construct were distributed at approximately 10,000 cells per well into 384- or 96-well multiwell plates. Compounds from a small molecule compound library were then added to the wells in half-log dilutions using a maximum concentration of three or ten micromolar. A series of control wells for each cell type received only buffer and compound solvent DMSO. Twenty-four hours after the addition of compound, reporter activity for luciferase was assayed, for example, by addition of the BrightGlo luminescence reagent (Promega) and the Victor3 plate reader (Perkin Elmer). Readings were normalized to DMSO only treated cells, and any activities above DMSO were considered activation. Compounds were considered activators if reporter activities were 2× fold or greater than DMSO. EC50 is the concentration at half maximal activation.
A general note: A reporter such as luciferase makes a cellular process visible.
The molecule `O=C(CCC(=O)c1ccc2c(c1)SCCO2)c1ccccc1` [Compound 28, 1-(2,3-Dihydrobenzo[b][1,4]oxathiin-6-yl)-4-phenylbutane-1,4-dione] yielded an EC50 of 9 nM.

Regarding `O=C(CCC(=O)c1ccc2c(c1)OCCO2)c1ccc(C(F)(F)F)cc1` [Compound 10, 1-(2,3-Dihydrobenzo[b][1,4]dioxin-6-yl)-4-(4-(trifluoromethyl)phenyl)butane-1,4-dione], the 50% effective concentration (EC50) was > 10000 nM.

As to `Cc1ccccc1C(=O)CCC(=O)c1ccc2ocnc2c1` [Compound 485, 1-(Benzo[d]oxazol-5-yl)-4-(o-tolyl)butane-1,4-dione], the concentration for a half-maximal effect (EC50) is > 10000 nM.

On to `Cc1ccccc1C(=O)CCC(=O)c1n[nH]c2ccccc12` [Compound 528, 1-(1H-Indazol-3-yl)-4-(o-tolyl)butane-1,4-dione], for which a half-maximal response (EC50) required 148 nM.

For `O=C(CCC(=O)c1ccccn1)c1ccc2[nH]ncc2c1` [Compound 507, 1-(1H-Indazol-5-yl)-4-(pyridin-2-yl)butane-1,4-dione], a half-maximal response (EC50) required 36 nM.

Turning to `COc1ccc(C(=O)CCC(=O)c2ccc3c(c2)CCCO3)cc1` [Compound 76, 1-(Chroman-6-yl)-4-(4-methoxyphenyl)butane-1,4-dione], the EC50 is > 10000 nM.

As for `O=C(CCC(=O)c1c[nH]c2ccccc12)c1ccc(C(F)(F)F)cc1` [Compound 316, 1-(1H-Indol-3-yl)-4-(4-(trifluoromethyl)phenyl)butane-1,4-dione], the 50% effective concentration (EC50) is > 10000 nM.

`COc1ccccc1C(=O)CCC(=O)c1ccc2ocnc2c1` [Compound 294, 1-(Benzo[d]oxazol-5-yl)-4-(2-methoxyphenyl)butane-1,4-dione]: the EC50 was 1720 nM.

As for `O=C(CCC(=O)c1n[nH]c2ccccc12)c1ccccc1` [Compound 338, 1-(1H-Indazol-3-yl)-4-phenylbutane-1,4-dione], a half-maximal effect (EC50) was put at 64 nM.

In the case of `COc1ccccc1C(=O)CCC(=O)c1ccccn1` [Compound 547, 1-(2-Methoxyphenyl)-4-(pyridin-2-yl)butane-1,4-dione], the concentration for a half-maximal effect (EC50) was > 10000 nM.

In turn, `Cc1ccccc1C(=O)CCC(=O)c1ccc2c(c1)CCCO2` [Compound 358, 1-(Chroman-6-yl)-4-(o-tolyl)butane-1,4-dione] registered an EC50 of 14 nM.

For the molecule `O=C(CCC(=O)c1c[nH]c2ccccc12)c1ccccc1` [Compound 325, 1-(1H-Indol-3-yl)-4-phenylbutane-1,4-dione], the EC50 is 63 nM.

`O=C(CCC(=O)c1ccccc1C(F)(F)F)c1ccc2c(c1)OCO2` [Compound 210, 1-(Benzo[d][1,3]dioxol-5-yl)-4-(2-(trifluoromethyl)phenyl)butane-1,4-dione] had an EC50 of 2 nM.

On to `O=C(CCC(=O)c1ccco1)c1ccc2[nH]ncc2c1` [Compound 515, 1-(Furan-2-yl)-4-(1H-indazol-5-yl)butane-1,4-dione], for which it took 127 nM to reach a half-maximal effect (EC50).

Molecule `O=C(CCC(=O)c1ccccc1F)c1ccc2c(c1)CCCO2` [Compound 71, 1-(Chroman-6-yl)-4-(2-fluorophenyl)butane-1,4-dione] returned an EC50 of 2.5 nM.

In the case of `O=C(CCC(=O)c1ccccc1F)c1ccc2[nH]ncc2c1` [Compound 495, 1-(2-Fluorophenyl)-4-(1H-indazol-5-yl)butane-1,4-dione], it took 8 nM to reach a half-maximal effect (EC50).

In the case of `O=C(CCC(=O)c1ncccn1)c1ccc2c(c1)OCO2` [Compound 372, 1-(Benzo[d][1,3]dioxol-5-yl)-4-(pyrimidin-2-yl)butane-1,4-dione], the response was half-maximal at 97 nM (EC50).

In the case of `O=C(CCC(=O)c1ccc2ocnc2c1)c1ccccc1` [Compound 300, 1-(Benzo[d]oxazol-5-yl)-4-phenylbutane-1,4-dione], a half-maximal response (EC50) required 18 nM.

In the case of `O=C(CCC(=O)c1ccc2[nH]ncc2c1)c1ccccc1` [Compound 513, 1-(1H-Indazol-5-yl)-4-phenylbutane-1,4-dione], the EC50 was 39 nM.

Molecule `O=C(CCC(=O)c1ccc2sccc2c1)c1ccccc1` [Compound 313, 1-(Benzo[b]thiophen-5-yl)-4-phenylbutane-1,4-dione] came in with an EC50 of 44 nM.

In turn, `O=C(CCC(=O)c1ccco1)c1ccc2c(c1)OCO2` [Compound 375, 1-(Benzo[d][1,3]dioxol-5-yl)-4-(furan-2-yl)butane-1,4-dione] showed a concentration giving a half-maximal response (EC50) of 71 nM.

In turn, `COc1ccccc1C(=O)CCC(=O)c1ccc2c(c1)OCCC2` [Compound 61, 1-(Chroman-7-yl)-4-(2-methoxyphenyl)butane-1,4-dione] registered an EC50 of 25 nM.

In the case of `O=C(CCC(=O)c1ccccc1C(F)(F)F)c1ccc2sccc2c1` [Compound 301, 1-(Benzo[b]thiophen-5-yl)-4-(2-(trifluoromethyl)phenyl)butane-1,4-dione], the response was half-maximal at 39 nM (EC50).

For `COc1ccc(C(=O)CCC(=O)c2cncnc2)cc1OC` [Compound 430, 1-(3,4-Dimethoxyphenyl)-4-(pyrimidin-5-yl)butane-1,4-dione], the EC50 is > 10000 nM.

`O=C(CCC(=O)c1ncccc1C(F)(F)F)c1ccc2c(c1)OCCO2` [Compound 570, 1-(2,3-Dihydrobenzo[b][1,4]dioxin-6-yl)-4-(3-(trifluoromethyl)pyridin-2-yl)butane-1,4-dione] yielded an EC50 of 26 nM.

`O=C(CCC(=O)c1ccc2c(c1)OCCO2)c1ccncc1` [Compound 15, 1-(2,3-Dihydrobenzo[b][1,4]dioxin-6-yl)-4-(pyridin-4-yl)butane-1,4-dione] came in with a concentration giving a half-maximal response (EC50) of 90 nM.

Molecule `COc1ccc(C(=O)CCC(=O)c2cccc(C)c2)cc1OC` [Compound 425, 1-(3,4-Dimethoxyphenyl)-4-(m-tolyl)butane-1,4-dione] registered an EC50 of 5950 nM.

The molecule `O=C(CCC(=O)c1cccc2c1OCCO2)c1ccco1` [Compound 442, 1-(2,3-Dihydrobenzo[b][1,4]dioxin-5-yl)-4-(furan-2-yl)butane-1,4-dione] returned an EC50 of 2150 nM.

Take `COc1ccc(C(=O)CCC(=O)c2ccc(C)cc2)cc1OC` [Compound 426, 1-(3,4-Dimethoxyphenyl)-4-(p-tolyl)butane-1,4-dione]: the EC50 stood at 8800 nM.

Take `Cc1cccc(C(=O)CCC(=O)c2ccc3c(c2)OC(F)(F)O3)c1` [Compound 379, 1-(2,2-Difluorobenzo[d][1,3]dioxol-5-yl)-4-(m-tolyl)butane-1,4-dione]: the EC50 was > 10000 nM.

As for `O=C(CCC(=O)c1ccccc1C(F)(F)F)c1ccc2ocnc2c1` [Compound 288, 1-(Benzo[d]oxazol-5-yl)-4-(2-(trifluoromethyl)phenyl)butane-1,4-dione], the EC50 is > 10000 nM.

As to `O=C(CCC(=O)c1ccccc1C(F)(F)F)c1cccs1` [Compound 559, 1-(Thiophen-2-yl)-4-(2-(trifluoromethyl)phenyl)butane-1,4-dione], a half-maximal response (EC50) required 340 nM.

Turning to `COc1ccc(C(=O)CCC(=O)c2ccncc2)cc1OC` [Compound 209, 1-(3,4-Dimethoxyphenyl)-4-(pyridin-4-yl)butane-1,4-dione], the EC50 was > 10000 nM.

On to `O=C(CCC(=O)c1ccc2c(c1)OCO2)c1cccc(F)c1` [Compound 214, 1-(Benzo[d][1,3]dioxol-5-yl)-4-(3-fluorophenyl)butane-1,4-dione], for which the EC50 was found to be 10 nM.

Molecule `O=C(CCC(=O)c1ccccc1F)c1ccc2ocnc2c1` [Compound 291, 1-(Benzo[d]oxazol-5-yl)-4-(2-fluorophenyl)butane-1,4-dione] had an EC50 of 125 nM.

As to `COc1ccccc1C(=O)CCC(=O)c1cccc2c1OCCO2` [Compound 242, 1-(2,3-Dihydrobenzo[b][1,4]dioxin-5-yl)-4-(2-methoxyphenyl)butane-1,4-dione], the EC50 came to 789 nM.

In the case of `O=C(CCC(=O)c1n[nH]c2ccccc12)c1ccccc1C(F)(F)F` [Compound 326, 1-(1H-Indazol-3-yl)-4-(2-(trifluoromethyl)phenyl)butane-1,4-dione], a half-maximal response (EC50) required 117 nM.

Regarding `COc1ccccc1C(=O)CCC(=O)c1n[nH]c2ccccc12` [Compound 332, 1-(1H-Indazol-3-yl)-4-(2-methoxyphenyl)butane-1,4-dione], the midpoint of the response, the EC50, lay at 680 nM.

In the case of `O=C(CCC(=O)c1ncccn1)c1ccccc1` [Compound 718, 1-Phenyl-4-(pyrimidin-2-yl)butane-1,4-dione], the EC50 amounted to 681 nM.

Turning to `O=C(CCC(=O)c1ccco1)c1ccc2occc2c1` [Compound 462, 1-(Benzofuran-5-yl)-4-(furan-2-yl)butane-1,4-dione], the response was half-maximal at 424 nM (EC50).

For the molecule `COc1ccc(C(=O)CCC(=O)c2n[nH]c3ccccc23)cc1` [Compound 334, 1-(1H-Indazol-3-yl)-4-(4-methoxyphenyl)butane-1,4-dione], the concentration for a half-maximal effect (EC50) is > 10000 nM.

Take `O=C(CCC(=O)c1c[nH]c2ccccc12)c1ccccc1F` [Compound 317, 1-(2-Fluorophenyl)-4-(1H-indol-3-yl)butane-1,4-dione]: the 50% effective concentration (EC50) was > 10000 nM.

The molecule `COc1cccc(C(=O)CCC(=O)c2ccc3c(c2)OCO3)c1` [Compound 217, 1-(Benzo[d][1,3]dioxol-5-yl)-4-(3-methoxyphenyl)butane-1,4-dione] yielded an EC50 of 343 nM.

For the molecule `O=C(CCC(=O)c1ccco1)c1ccc2c(c1)OCCO2` [Compound 346, 1-(2,3-Dihydrobenzo[b][1,4]dioxin-6-yl)-4-(furan-2-yl)butane-1,4-dione], the EC50 is 24 nM.
